Key:
calcium channel = target: T1, calcium channel (Rattus norvegicus, UniProt P22002); experiment: Calcium channel blocking activity, K+ depolarization-induced contraction of helically cut rat aortic strip; details: Krebs-Henselheit solution, 37° C., cumulative doses, read-out: IC50 (50% decrease of contraction of the aortic strip)
T1 construct: helically cut rat aortic strip; from tissue; host or cells: rat aorta (helically cut strip)
Description: The calcium channel blocking activity of the compounds was tested using a helically cut rat aortic strip in Krebs-Henselheit solution at 37° C., bubbled with a mixture of 95% O2 and 5% CO2. The isometrically registered contractions were induced by K^(+). depolarization. The test compounds were applied in a cumulative doses and the vasodilating activity thereof was expressed in calculated concentration of the test compound, causing 50% decrease of contraction of the aortic strip (IC50).

blood pressure = experiment: Hypotensive activity, pentobarbital anaesthesized rabbits; format: in vivo, rabbit
Excerpt: a) The blood pressure of pentobarbital anaesthesized rabbits was registered invasively in arteria femoralis. The average decrease in systolic (SBP) and diastolic (DBP) blood pressure expressed in per cents of the starting blood pressure level after intravenous and oral administration is shown in Tables 3 and 4.

[1] = p.o., 5.0 mg/kg, value 1 of 5 (heads 30/60/120/180 min)
[2] = p.o., 5.0 mg/kg, value 2 of 5 (heads 30/60/120/180 min)
[3] = p.o., 5.0 mg/kg, value 3 of 5 (heads 30/60/120/180 min)
[4] = p.o., 5.0 mg/kg, value 4 of 5 (heads 30/60/120/180 min)
[5] = p.o., 5.0 mg/kg, value 5 of 5 (heads 30/60/120/180 min)
[6] = p.o., 10.0 mg/kg, value 1 of 5 (heads 30/60/120/180 min)
[7] = p.o., 10.0 mg/kg, value 2 of 5 (heads 30/60/120/180 min)
[8] = p.o., 10.0 mg/kg, value 3 of 5 (heads 30/60/120/180 min)
[9] = p.o., 10.0 mg/kg, value 4 of 5 (heads 30/60/120/180 min)
[10] = p.o., 10.0 mg/kg, value 5 of 5 (heads 30/60/120/180 min)
[11] = p.o., 50.0 mg/kg, value 1 of 5 (heads 30/60/120/180 min)
[12] = p.o., 50.0 mg/kg, value 2 of 5 (heads 30/60/120/180 min)
[13] = p.o., 50.0 mg/kg, value 3 of 5 (heads 30/60/120/180 min)
[14] = p.o., 50.0 mg/kg, value 4 of 5 (heads 30/60/120/180 min)
[15] = p.o., 50.0 mg/kg, value 5 of 5 (heads 30/60/120/180 min)

T1 sequence (P22002 whole entry): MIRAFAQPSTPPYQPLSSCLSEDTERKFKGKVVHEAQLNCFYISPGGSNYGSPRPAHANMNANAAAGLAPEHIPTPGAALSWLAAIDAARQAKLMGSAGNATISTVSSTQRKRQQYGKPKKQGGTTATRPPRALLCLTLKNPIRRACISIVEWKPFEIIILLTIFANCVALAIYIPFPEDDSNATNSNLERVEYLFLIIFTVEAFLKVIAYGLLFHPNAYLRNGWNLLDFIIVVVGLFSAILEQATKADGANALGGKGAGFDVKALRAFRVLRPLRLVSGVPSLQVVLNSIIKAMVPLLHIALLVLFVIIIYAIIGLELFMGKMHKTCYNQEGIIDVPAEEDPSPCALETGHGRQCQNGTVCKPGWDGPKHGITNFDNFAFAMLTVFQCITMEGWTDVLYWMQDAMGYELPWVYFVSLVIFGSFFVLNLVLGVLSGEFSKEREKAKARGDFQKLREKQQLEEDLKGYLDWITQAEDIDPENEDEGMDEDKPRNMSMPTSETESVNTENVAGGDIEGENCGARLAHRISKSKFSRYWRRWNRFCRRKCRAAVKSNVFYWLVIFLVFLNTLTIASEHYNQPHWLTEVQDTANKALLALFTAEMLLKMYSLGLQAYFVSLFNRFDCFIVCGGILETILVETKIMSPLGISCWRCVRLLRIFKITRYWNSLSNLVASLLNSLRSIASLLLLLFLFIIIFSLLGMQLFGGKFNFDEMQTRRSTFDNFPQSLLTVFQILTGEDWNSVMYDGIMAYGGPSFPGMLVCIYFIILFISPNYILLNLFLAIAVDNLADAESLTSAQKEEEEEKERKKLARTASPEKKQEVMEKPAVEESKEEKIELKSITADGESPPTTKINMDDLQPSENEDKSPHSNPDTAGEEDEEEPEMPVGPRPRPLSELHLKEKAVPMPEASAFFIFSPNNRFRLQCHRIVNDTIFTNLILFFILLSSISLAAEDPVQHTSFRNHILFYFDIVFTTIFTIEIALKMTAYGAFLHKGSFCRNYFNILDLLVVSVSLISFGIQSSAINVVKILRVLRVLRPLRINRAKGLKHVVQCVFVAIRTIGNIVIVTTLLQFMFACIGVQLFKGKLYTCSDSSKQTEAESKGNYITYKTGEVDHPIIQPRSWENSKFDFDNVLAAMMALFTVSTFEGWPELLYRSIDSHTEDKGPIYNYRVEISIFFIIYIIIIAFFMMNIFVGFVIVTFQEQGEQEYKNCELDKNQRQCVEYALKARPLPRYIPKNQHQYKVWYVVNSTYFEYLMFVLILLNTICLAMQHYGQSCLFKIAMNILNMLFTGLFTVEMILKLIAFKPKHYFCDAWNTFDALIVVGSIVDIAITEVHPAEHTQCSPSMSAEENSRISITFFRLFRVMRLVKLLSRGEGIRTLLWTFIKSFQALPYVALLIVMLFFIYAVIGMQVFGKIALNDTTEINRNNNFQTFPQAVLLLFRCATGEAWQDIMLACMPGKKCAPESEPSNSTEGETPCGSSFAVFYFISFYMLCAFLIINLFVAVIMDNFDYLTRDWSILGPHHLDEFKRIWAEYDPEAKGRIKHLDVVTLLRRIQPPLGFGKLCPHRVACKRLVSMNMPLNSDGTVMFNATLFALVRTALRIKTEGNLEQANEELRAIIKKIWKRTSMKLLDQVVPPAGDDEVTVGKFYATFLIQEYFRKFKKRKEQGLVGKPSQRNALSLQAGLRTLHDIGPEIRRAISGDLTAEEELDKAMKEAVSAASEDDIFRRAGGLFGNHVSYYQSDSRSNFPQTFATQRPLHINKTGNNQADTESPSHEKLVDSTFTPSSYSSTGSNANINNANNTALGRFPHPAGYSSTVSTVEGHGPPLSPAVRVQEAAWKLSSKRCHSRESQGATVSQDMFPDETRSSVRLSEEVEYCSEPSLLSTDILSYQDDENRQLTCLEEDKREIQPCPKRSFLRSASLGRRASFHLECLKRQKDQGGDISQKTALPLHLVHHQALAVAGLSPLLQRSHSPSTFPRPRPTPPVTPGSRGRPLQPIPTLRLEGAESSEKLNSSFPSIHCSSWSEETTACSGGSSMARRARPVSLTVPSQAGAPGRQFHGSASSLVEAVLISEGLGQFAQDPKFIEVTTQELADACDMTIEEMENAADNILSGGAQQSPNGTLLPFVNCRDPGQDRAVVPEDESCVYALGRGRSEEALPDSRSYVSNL
T1 sequence (P54290 25-1091 partner): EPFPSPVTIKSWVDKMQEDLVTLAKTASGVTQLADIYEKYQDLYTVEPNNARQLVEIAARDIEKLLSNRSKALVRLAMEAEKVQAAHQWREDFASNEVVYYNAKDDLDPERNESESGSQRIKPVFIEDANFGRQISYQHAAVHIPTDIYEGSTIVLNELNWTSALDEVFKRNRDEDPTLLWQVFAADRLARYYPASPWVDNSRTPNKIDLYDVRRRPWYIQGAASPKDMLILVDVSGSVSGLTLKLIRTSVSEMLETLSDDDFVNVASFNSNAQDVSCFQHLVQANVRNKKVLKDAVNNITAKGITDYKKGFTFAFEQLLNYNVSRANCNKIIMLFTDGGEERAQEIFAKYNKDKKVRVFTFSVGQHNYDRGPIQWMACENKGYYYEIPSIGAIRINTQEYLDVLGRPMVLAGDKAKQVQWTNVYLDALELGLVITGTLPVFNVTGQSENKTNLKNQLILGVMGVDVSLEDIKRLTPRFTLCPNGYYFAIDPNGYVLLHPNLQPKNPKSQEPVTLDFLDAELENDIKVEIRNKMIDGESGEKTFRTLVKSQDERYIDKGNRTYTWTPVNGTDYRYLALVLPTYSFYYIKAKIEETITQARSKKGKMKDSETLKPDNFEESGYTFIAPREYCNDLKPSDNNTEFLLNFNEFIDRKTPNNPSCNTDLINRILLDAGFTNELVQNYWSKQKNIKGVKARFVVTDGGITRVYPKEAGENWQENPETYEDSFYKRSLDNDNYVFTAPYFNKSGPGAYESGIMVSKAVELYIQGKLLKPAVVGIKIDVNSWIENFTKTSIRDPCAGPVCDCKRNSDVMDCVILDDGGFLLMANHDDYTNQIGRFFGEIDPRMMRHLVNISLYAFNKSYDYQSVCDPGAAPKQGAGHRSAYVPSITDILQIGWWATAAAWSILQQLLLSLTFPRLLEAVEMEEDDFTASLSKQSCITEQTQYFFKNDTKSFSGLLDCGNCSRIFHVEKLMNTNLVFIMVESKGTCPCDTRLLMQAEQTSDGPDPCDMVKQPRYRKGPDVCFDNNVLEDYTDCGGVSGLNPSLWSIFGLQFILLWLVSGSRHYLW

Structure (SMILES): COc1ccc(C(C#N)(CCCNCC2COc3ccccc3O2)C(C)C)cc1OC (racemic) [VUFB 17951, 5-(2,3-Dihydro-1,4-benzodioxin-2-ylmethylamino)-2-(3,4-dimethoxyphenyl)-2-isopropyl valeronitrile]
- IC50 (calcium channel): 18 µM
- decrease in diastolic blood pressure (DBP) (blood pressure; i.v., 0.2 mg/kg, 1 min): -36 per cents
- decrease in systolic blood pressure (SBP) (blood pressure; i.v., 0.2 mg/kg, 1 min): -28 per cents
- decrease in diastolic blood pressure (DBP) (blood pressure; i.v., 0.2 mg/kg, 5 min): -23 per cents
- decrease in systolic blood pressure (SBP) (blood pressure; i.v., 0.2 mg/kg, 5 min): -24 per cents
- decrease in diastolic blood pressure (DBP) (blood pressure; i.v., 0.2 mg/kg, 30 min): -24 per cents
- decrease in systolic blood pressure (SBP) (blood pressure; i.v., 0.2 mg/kg, 30 min): -25 per cents
- decrease in diastolic blood pressure (DBP) (blood pressure; i.v., 0.2 mg/kg, 60 min): -16 per cents
- decrease in systolic blood pressure (SBP) (blood pressure; i.v., 0.2 mg/kg, 60 min): -18 per cents
- decrease in diastolic blood pressure (DBP) (blood pressure; i.v., 0.2 mg/kg, 180 min): -17 per cents
- decrease in systolic blood pressure (SBP) (blood pressure; i.v., 0.2 mg/kg, 180 min): -13 per cents
- decrease in diastolic blood pressure (DBP) (blood pressure; i.v., 1.0 mg/kg, 1 min): -56 per cents
- decrease in systolic blood pressure (SBP) (blood pressure; i.v., 1.0 mg/kg, 1 min): -47 per cents
- decrease in diastolic blood pressure (DBP) (blood pressure; i.v., 1.0 mg/kg, 5 min): -36 per cents
- decrease in systolic blood pressure (SBP) (blood pressure; i.v., 1.0 mg/kg, 5 min): -39 per cents
- decrease in diastolic blood pressure (DBP) (blood pressure; i.v., 1.0 mg/kg, 30 min): -30 per cents
- decrease in systolic blood pressure (SBP) (blood pressure; i.v., 1.0 mg/kg, 30 min): -35 per cents
- decrease in diastolic blood pressure (DBP) (blood pressure; i.v., 1.0 mg/kg, 60 min): -33 per cents
- decrease in systolic blood pressure (SBP) (blood pressure; i.v., 1.0 mg/kg, 60 min): -35 per cents
- decrease in diastolic blood pressure (DBP) (blood pressure; i.v., 1.0 mg/kg, 180 min): -24 per cents
- decrease in systolic blood pressure (SBP) (blood pressure; i.v., 1.0 mg/kg, 180 min): -17 per cents
- decrease in diastolic blood pressure (DBP) (blood pressure; [1]): -6 per cents
- decrease in systolic blood pressure (SBP) (blood pressure; [1]): -6 per cents
- decrease in diastolic blood pressure (DBP) (blood pressure; [2]): -12 per cents
- decrease in systolic blood pressure (SBP) (blood pressure; [2]): -14 per cents
- decrease in diastolic blood pressure (DBP) (blood pressure; [3]): -18 per cents
- decrease in systolic blood pressure (SBP) (blood pressure; [3]): -17 per cents
- decrease in diastolic blood pressure (DBP) (blood pressure; [4]): -18 per cents
- decrease in systolic blood pressure (SBP) (blood pressure; [4]): -13 per cents
- decrease in diastolic blood pressure (DBP) (blood pressure; [5]): -18 per cents
- decrease in systolic blood pressure (SBP) (blood pressure; [5]): -15 per cents
- decrease in diastolic blood pressure (DBP) (blood pressure; [6]): -6 per cents
- decrease in systolic blood pressure (SBP) (blood pressure; [6]): -5 per cents
- decrease in diastolic blood pressure (DBP) (blood pressure; [7]): -11 per cents
- decrease in systolic blood pressure (SBP) (blood pressure; [7]): -9 per cents
- decrease in diastolic blood pressure (DBP) (blood pressure; [8]): -18 per cents
- decrease in systolic blood pressure (SBP) (blood pressure; [8]): -12 per cents
- decrease in diastolic blood pressure (DBP) (blood pressure; [9]): -20 per cents
- decrease in systolic blood pressure (SBP) (blood pressure; [9]): -13 per cents
- decrease in diastolic blood pressure (DBP) (blood pressure; [10]): -17 per cents
- decrease in systolic blood pressure (SBP) (blood pressure; [10]): -12 per cents

Structure (SMILES): Cc1ccccc1C(C#N)(CCCNCC1COc2ccccc2O1)C(C)C (racemic) [VUFB 17959, 5-(2,3-dihydro-1,4-benzodioxin-2-ylmethylamino)-2-isopropyl-2-(2-methylphenyl) valeronitrile]
- IC50 (calcium channel): 16 µM
- decrease in diastolic blood pressure (DBP) (blood pressure; i.v., 1.0 mg/kg, 1 min): -51 per cents
- decrease in systolic blood pressure (SBP) (blood pressure; i.v., 1.0 mg/kg, 1 min): -47 per cents
- decrease in diastolic blood pressure (DBP) (blood pressure; i.v., 1.0 mg/kg, 5 min): -22 per cents
- decrease in systolic blood pressure (SBP) (blood pressure; i.v., 1.0 mg/kg, 5 min): -23 per cents
- decrease in diastolic blood pressure (DBP) (blood pressure; i.v., 1.0 mg/kg, 30 min): -21 per cents
- decrease in systolic blood pressure (SBP) (blood pressure; i.v., 1.0 mg/kg, 30 min): -22 per cents
- decrease in diastolic blood pressure (DBP) (blood pressure; i.v., 1.0 mg/kg, 60 min): -25 per cents
- decrease in systolic blood pressure (SBP) (blood pressure; i.v., 1.0 mg/kg, 60 min): -14 per cents
- decrease in diastolic blood pressure (DBP) (blood pressure; i.v., 1.0 mg/kg, 180 min): -18 per cents
- decrease in systolic blood pressure (SBP) (blood pressure; i.v., 1.0 mg/kg, 180 min): -8 per cents
- decrease in diastolic blood pressure (DBP) (blood pressure; i.v., 5.0 mg/kg, 1 min): -69 per cents
- decrease in systolic blood pressure (SBP) (blood pressure; i.v., 5.0 mg/kg, 1 min): -60 per cents
- decrease in diastolic blood pressure (DBP) (blood pressure; i.v., 5.0 mg/kg, 5 min): -39 per cents
- decrease in systolic blood pressure (SBP) (blood pressure; i.v., 5.0 mg/kg, 5 min): -35 per cents
- decrease in diastolic blood pressure (DBP) (blood pressure; i.v., 5.0 mg/kg, 30 min): -31 per cents
- decrease in systolic blood pressure (SBP) (blood pressure; i.v., 5.0 mg/kg, 30 min): -26 per cents
- decrease in diastolic blood pressure (DBP) (blood pressure; i.v., 5.0 mg/kg, 60 min): -29 per cents
- decrease in systolic blood pressure (SBP) (blood pressure; i.v., 5.0 mg/kg, 60 min): -27 per cents
- decrease in diastolic blood pressure (DBP) (blood pressure; i.v., 5.0 mg/kg, 180 min): -33 per cents
- decrease in systolic blood pressure (SBP) (blood pressure; i.v., 5.0 mg/kg, 180 min): -25 per cents
- decrease in diastolic blood pressure (DBP) (blood pressure; [6]): -2 per cents
- decrease in systolic blood pressure (SBP) (blood pressure; [6]): -2 per cents
- decrease in diastolic blood pressure (DBP) (blood pressure; [7]): 0 per cents
- decrease in systolic blood pressure (SBP) (blood pressure; [7]): -3 per cents
- decrease in diastolic blood pressure (DBP) (blood pressure; [8]): -3 per cents
- decrease in systolic blood pressure (SBP) (blood pressure; [8]): -4 per cents
- decrease in diastolic blood pressure (DBP) (blood pressure; [9]): -8 per cents
- decrease in systolic blood pressure (SBP) (blood pressure; [9]): -1 per cents
- decrease in diastolic blood pressure (DBP) (blood pressure; [10]): -10 per cents
- decrease in systolic blood pressure (SBP) (blood pressure; [10]): +3 per cents
- decrease in diastolic blood pressure (DBP) (blood pressure; [11]): -6 per cents
- decrease in systolic blood pressure (SBP) (blood pressure; [11]): -9 per cents
- decrease in diastolic blood pressure (DBP) (blood pressure; [12]): -12 per cents
- decrease in systolic blood pressure (SBP) (blood pressure; [12]): -18 per cents
- decrease in diastolic blood pressure (DBP) (blood pressure; [13]): -18 per cents
- decrease in systolic blood pressure (SBP) (blood pressure; [13]): -26 per cents
- decrease in diastolic blood pressure (DBP) (blood pressure; [14]): -18 per cents
- decrease in systolic blood pressure (SBP) (blood pressure; [14]): -29 per cents
- decrease in diastolic blood pressure (DBP) (blood pressure; [15]): -18 per cents
- decrease in systolic blood pressure (SBP) (blood pressure; [15]): -31 per cents

— US5424456A, “N-arylalkylderivatives of 2-aminomethyl-2,3-dihydro-1,4-benzodioxine and the process of preparation thereof” (Vyzkumny Ustav Pro Farmacii A Biochemii s.p., priority 1991, dated 1995)
